Key:
[1] = test system: HeLa cells; assay: Apoptosis and cell cycle analysis by PI staining and flow cytometry, HeLa; type: cell-based, human; conditions: 5-10-25 μM, 48 h
Protocol: (§1) The cells were incubated for 48 h with 1 and 6 at concentrations 5-10-25μM.
(§2) The effect of compound 1 and 6 on cell death was analyzed by propidium iodide (PI) (Merck, Darmstadt, Germany) incorporation in permeabilized cells and flow cytometry. Briefly, cells were plated at a density of 2 × 10^4 cells/well in a 24-well plate. After 24 h, 1 and 6 (25-10-5 μM) were added for 48 h. Cells were washed twice with PBS and incubated in 500μL of a solution containing 0.1% Triton X-100, 0.1% sodium citrate, and […] propidium iodide (PI), at 4 °C for 30 min in the dark. The PI-stained cells were subsequently analyzed by flow cytometry by FACSCalibur flow cytometer (Becton Dickinson, Milan, Italy) using CellQuest software (4.0, Becton Dickinson, North Ryde, NSW, Australia). Results are expressed as the percentage of cells in the hypodiploid region. Cellular debris were excluded from the analysis by raising the forward scatter threshold and the DNA content of the nuclei was registered on a logarithmic scale. Cell cycle profiles were evaluated by DNA staining with a PI solution using a flow cytometer. Results from 5000 events per sample were collected, and the relative percentage of the cells in G0/G1, S, G2/M, and sub-G0/G1 phases of the cell cycle was determined using the ModFit LT version 3.3 analysis software (BD Biosciences, North Ryde, NSW, Australia).
Figure 4 Cell cycle analysis: (a) DNA content and (b) hypodiploid nuclei, with propidium iodide staining, were evaluated by flow cytometric assay. HeLa cells were treated with 6 (5-10-25 μM) for 48 h. Results are expressed as mean ± S.E.M. of three independent experiments each performed in duplicate. Data were analyzed by Student’s t-test. * p < 0.05 and ** p < 0.005 vs. non-treated.

[2] = test system: PC3; parameters: method as in PMID 29926854; conditions: PC3 cells; read-out: antiproliferative activity IC50, PC3; cited from earlier work
[3] = test system: human melanoma cell line (A375); assay: MTT cell viability assay, A375; type: cell-based; conditions: 5–50 µM; for IC50: Homo sapiens, A-375, 48 h, read-out: A375 Cell Line IC50 ± SD; for A375 Cell Line IC50 ± SD: 48 h
Protocol: (§3) Firstly, the antiproliferative activity of lead compound 1, 2 and 5–9 against selected human cell lines was assessed. No effect on human PHA (Phytohaemagglutinin)-stimulated proliferating non-tumor human cell line (PMBC) has been detected for compound 1 tested at different concentrations (10–50 μM) after 72 h of exposure. In more detail, all the synthesized compounds have been tested on human melanoma cancer A375 and HeLa cancer cell lines, which are known to overexpress BAG3 protein, by an MTT cell viability assay, using different concentrations (5–50 μM). The IC50 values have been calculated after 48 h of treatment with test compounds (Table 2).
(§4) Cell lines of human cervical carcinoma (HeLa) and human malignant melanoma (A375) were cultured in Dulbecco’s modified Eagle’s medium containing 10% fetal bovine serum, supplemented with 100 U/mL each of penicillin and streptomycin, and 2 mM/L glutamine and were grown at 37 °C under 5% CO2 air humidified atmosphere.
(§5) Cell viability was evaluated using a colorimetric assay based on MTT ((3-(4,5-dimethylthiazol-2-yl)-2,5-diphenyltetrazolium bromide)) assay. Cells were grown in 96-well tissue culture plates (3,5 × 10^3 cells/well) and after 24 h, were treated with different concentrations of 1, 2 and 5–9 (50, 25, 10, and 5 µM) and incubation was performed for 48 h at 37 °C in an atmosphere containing 5% CO2. At the end of treatment, the plates were centrifuged at 1200 rpm for 5 min, the medium was removed and 100 μL of MTT (1 mg/mL) were added to each well, and cells were incubated at 37 °C for the time necessary to allow the formation of purple formazan precipitate. The solution was then removed from each well, and the formazan crystals within the cells were dissolved with 100 μL of DMSO [31]. The optical density (OD) of each well was measured with a microplate spectrophotometer (Multiskan Spectrum Thermo Electron Corporation reader) (Thermo Fisher Scientific, Rome, Italy) equipped with a 620-nm filter. Cell mortality was calculated as: % mortality = 100 − [100 × (OD treated/OD control)] [32].

[4] = test system: A549; parameters: method as in PMID 29926854; conditions: A549 cells; read-out: antiproliferative activity IC50, A549; cited from earlier work
[5] = test system: human PHA (Phytohaemagglutinin)-stimulated proliferating non-tumor human cell line (PMBC); parameters: method as in PMID 29926854; conditions: 10–50 μM, 72 h of exposure; cited from earlier work
[6] = target: Human recombinant BAG3 (rBAG3) protein full length (Homo sapiens, UniProt O95817); assay: SPR assay on recombinant full-length BAG3; conditions: for rBAG3 KD ± SD: SPR, full-length protein, 25 °C, n.b. = no binding
Protocol: (§9) A surface plasmon resonance (SPR) assay [18], using a recombinant BAG3 protein, was performed and, to explore the potential selectivity of our potential binders, the affinity for BAG4—the most closely BAG3 related protein—was also evaluated. Moreover, the binding affinity towards the BAG3BD domain was also assessed.
(§10) The SPR analysis were performed on Biacore 3000^TM equipped with a research-grade CM5 sensor chip (GE Healthcare^TM, Milan, Italy). Human recombinant BAG3 (rBAG3) protein was purchased from MyBioSource© (San Diego, CA, USA), BAG3 domain (rBAG3BD) was purchased from ARETA International S.r.l. […] The proteins were coupled to the surface of a CM5 sensor chip using standard amine-coupling protocols, according to the manufacturer’s instructions. Three separates recombinant rBAG proteins surfaces and one unmodified reference surface were prepared for simultaneous analyses. rBAG proteins (BAG3 and BAG4) and rBAG3BD (100 µg mL^−1 in 10 mM CH3COONa, pH 4.5) were immobilized on the sensor chip surface at a flow rate of 5 µL min^−1 to obtain densities of 5–9 kRU. […] For each molecule, a six-point concentration series was conducted in triplicate (0-0.25-1-10-20-100 µM). SPR (Surface Plasmon Resonance) experiments were performed at 25 °C, using a flow rate of 10 µL min^−1, with 60-s monitoring of association and 300-s monitoring of dissociation. Sensorgram elaborations were performed using the BIAevaluation software (GE Healthcare^TM, Milan, Italy). provided by GE Healthcare^TM. Simple interactions were suitably fitted to a single-site bimolecular interaction model (A + B = AB), yielding a single KD.

[7] = target: T1, BAG3 domain (rBAG3BD) (Homo sapiens, UniProt O95817); assay: SPR assay on isolated BAG3 BAG domain; conditions: for rBAG3BD KD ± SD: SPR, isolated BAG domain, 25 °C, n.b. = no binding
T1 sequence (O95817 421-498 limits assumed): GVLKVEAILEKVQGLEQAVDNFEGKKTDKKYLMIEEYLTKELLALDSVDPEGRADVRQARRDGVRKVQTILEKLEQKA
Protocol: as §9, §10

[8] = test system: A375 cells; assay: Apoptosis and cell cycle analysis by PI staining and flow cytometry, A375; type: cell-based, human; conditions: 5-10-25 μM, 48 h
Protocol: as §1, §2
Figure 3 Cell cycle analysis: (a) DNA content and (b) hypodiploid nuclei, with propidium iodide staining, were evaluated by flow cytometric assay. A375 cells were treated respectively with 1 or 6 (both 5-10-25 μM) for 48 h. Results are expressed as mean ± S.E.M. of three independent experiments, each performed in duplicate. Data were analyzed by Student’s t-test. * p < 0.05 and ** p < 0.005 vs. non-treated.

[9] = test system: human cervical adenocarcinoma cell line (HeLa); assay: MTT cell viability assay, HeLa; type: cell-based; conditions: 48 h, 5–50 µM; for IC50: Homo sapiens, HeLa, read-out: HeLa Cell Line IC50 ± SD
Protocol: as §3, §4, §5

[10] = target: T2, human recombinant BAG4 protein (Homo sapiens, UniProt O95429); assay: SPR assay on BAG4 (selectivity); conditions: 25 °C, n.b. = no binding
T2 sequence (O95429 1-457): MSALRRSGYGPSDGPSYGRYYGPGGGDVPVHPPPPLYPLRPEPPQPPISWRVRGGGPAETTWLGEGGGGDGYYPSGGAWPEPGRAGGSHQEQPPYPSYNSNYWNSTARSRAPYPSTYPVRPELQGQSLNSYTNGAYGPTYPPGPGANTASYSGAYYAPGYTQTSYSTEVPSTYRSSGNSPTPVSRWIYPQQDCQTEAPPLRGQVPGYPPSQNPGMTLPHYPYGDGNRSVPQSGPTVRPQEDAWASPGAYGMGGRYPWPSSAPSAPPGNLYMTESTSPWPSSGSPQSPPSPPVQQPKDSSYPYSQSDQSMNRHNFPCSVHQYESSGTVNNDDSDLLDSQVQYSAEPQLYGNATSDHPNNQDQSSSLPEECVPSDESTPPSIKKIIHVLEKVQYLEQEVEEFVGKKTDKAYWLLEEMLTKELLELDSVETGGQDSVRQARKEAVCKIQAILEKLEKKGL
Protocol: as §9, §10

[11] = test system: caspase 3; assay: Caspase 3 level by flow cytometry in HeLa cells; type: cell-based, human; conditions: 5-10-25 μM, 48 h
Protocol: (§6) Furthermore, the expression of caspases, the key mediators of programmed cells death, was examined in HeLa cells after the treatment with compound 6.
(§7) Cells were plated into 12-well plated (2 × 10^4 cells/well) and after 24 h were treated with 6 (50-25-10-5 µM) for 48 h to assess caspase 3 and caspase 9 levels. Cells were collected, washed with PBS, then incubated in fixing buffer (containing 4% formaldehyde, 0.1% NaN3, and 2% FBS in PBS) for 20 min and then permeabilized with fix perm solution (fixing buffer containing 0.1% Triton X) for 30 min. Afterward, anti-caspase 3 or anti-caspase 9 antibodies were added for a further 30 min. Cells were then incubated with anti-rabbit Texas Red antibody as a secondary antibody for 1 h at 4 °C. Cell fluorescence was evaluated using a fluorescence-activated cell sorter (FACSscan; Becton Dickinson, Milan, Italy) and analyzed with the Cell Quest software (4.0, Becton Dickinson, North Ryde, NSW, Australia). Data were shown as a percentage of positive cells.
(§8) Figure 5 (a) Caspase 3 and (b) caspase 9 expressions were detected by flow cytometric analysis. HeLa cells were treated with 6 (5-10-25 μM) for 48 h. Results are expressed as mean ± S.E.M. from at least three independent experiments each performed in duplicate. Data were analyzed by Student’s t-test. *** p < 0.0001 vs. non-treated.

[12] = test system: caspase 9; assay: Caspase 9 level by flow cytometry in HeLa cells; type: cell-based, human; conditions: 5-10-25 μM, 48 h
Protocol: as §6, §7, §8

[13] = test system: BAG3; assay: BAG3 expression by Western blotting in HeLa cells; type: cell-based, human; conditions: 5-10-25 μM, 48 h
Protocol: Figure 6 HeLa cells were treated with 6 (5-10-25 μM) for 48 h. BAG3 expression was detected by Western blotting. Tubulin protein expression was used as a loading control. Results are expressed as mean ± S.E.M. from at least three independent experiments each performed in duplicate. Data were analyzed by Student’s t test vs. non-treated.

Chain of Human recombinant BAG3 (rBAG3) protein full length (O95817 whole entry, the tested form may be a part): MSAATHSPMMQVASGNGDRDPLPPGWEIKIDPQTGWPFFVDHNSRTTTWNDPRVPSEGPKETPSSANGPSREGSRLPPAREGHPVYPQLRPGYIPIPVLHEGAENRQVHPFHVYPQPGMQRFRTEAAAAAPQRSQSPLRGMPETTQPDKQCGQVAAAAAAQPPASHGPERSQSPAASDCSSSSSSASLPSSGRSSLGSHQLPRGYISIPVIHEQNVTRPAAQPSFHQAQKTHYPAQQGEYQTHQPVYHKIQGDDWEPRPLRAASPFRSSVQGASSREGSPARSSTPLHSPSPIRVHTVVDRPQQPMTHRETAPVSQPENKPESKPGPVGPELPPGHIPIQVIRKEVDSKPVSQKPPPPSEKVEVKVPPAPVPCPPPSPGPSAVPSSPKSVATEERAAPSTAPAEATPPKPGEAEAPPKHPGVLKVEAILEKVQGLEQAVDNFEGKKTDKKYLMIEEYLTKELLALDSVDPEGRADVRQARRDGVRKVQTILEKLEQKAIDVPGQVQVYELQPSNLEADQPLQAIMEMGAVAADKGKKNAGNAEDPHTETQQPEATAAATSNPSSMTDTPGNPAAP

For CCOC(=O)CN1C(=O)S/C(=C\c2ccc(O)c(O)c2)C1=O [Compound 1, reference compound], the “cell cycle distribution (G2 phase), HeLa” value [1] is given as “no evident effect”, the IC50 [2] is given as 48.1 ± 1.5 µM and the IC50 [3] is given as 15.1 ± 0.9 µM. The IC50 [4] was 32.3 ± 0.9 µM, the “effect on PHA-stimulated proliferating non-tumor cells” value [5] was “No effect” and the Kd [6] was 0.0111 ± 0.0039 µM. For the same compound, the Kd [7] was 0.0064 ± 0.0022 µM, the “apoptotic response (hypodiploid nuclei), A375” value [8] was “dose-dependent increase in hypodiploid nuclei” and the “cell cycle distribution (G2 phase), A375” value [8] was “accumulation in the G2 phase”. For the same compound, the IC50 [9] was greater than 50 µM and the “rBAG4 KD ± SD” value [10] was “n.b. ^a”.
With COC(=O)CN1C(=O)S/C(=C\c2ccc(O)c(O)c2)C1=O [Compound 2, (Z)-methyl 2-(5-(3,4-dihydroxybenzylidene)-2,4-dioxothiazolidin-3-yl) acetate] the IC50 [3] was greater than 50 µM, the Kd [6] was 0.115 ± 0.0014 µM and the “rBAG3BD KD ± SD” value [7] was “n.b”. The IC50 [9] was 27.3 ± 1.2 µM and the “rBAG4 KD ± SD” value [10] was “n.b”.
In the case of CCOC(=O)CN1C(=O)S/C(=C\c2cc(O)cc(O)c2)C1=O [Compound 3, (Z)-ethyl 2-(5-(3,5-dihydroxybenzylidene)-2,4-dioxothiazolidin-3-yl) acetate], the “rBAG3 KD ± SD” value [6] is reported as “n.b”.
For COC(=O)CN1C(=O)S/C(=C\c2cc(O)cc(O)c2)C1=O [Compound 4, (Z)-methyl 2-(5-(3,5-dihydroxybenzylidene)-2,4-dioxothiazolidin-3-yl) acetate], the “rBAG3 KD ± SD” value [6] was “n.b”.
In the case of O=C(CN1C(=O)S/C(=C\c2cc(O)cc(O)c2)C1=O)N1CCOCC1 [Compound 5, (Z)-5-(3,5-dihydroxybenzylidene)-3-(2-morpholino-2-oxoethyl) thiazolidine-2,4-dione], the “A375 Cell Line IC50 ± SD” value [3] is reported as “micromolar range”, the IC50 [3] is reported as 25.5 ± 1.1 µM and the “HeLa Cell Line IC50 ± SD” value [9] is reported as “micromolar range”. For the same compound, the IC50 [9] was 30 ± 1.3 µM and the “rBAG4 KD ± SD” value [10] was “n.b”.
With CCOC(=O)CN1C(=O)S/C(=C\c2ccc(N(CCO)CCO)cc2)C1=O [Compound 6, (Z)-ethyl 2-(5-(4-(bis(2-hydroxyethyl)amino)benzylidene)-2,4-dioxothiazolidin-3-yl) acetate] the “caspase 3 levels” value [11] was “significant and dose-dependent activation”, the “caspase 9 levels” value [12] was “significant and dose-dependent activation” and the “apoptotic response (hypodiploid nuclei), HeLa” value [1] was “significant increase of the apoptotic response in a dose-dependent manner”. For the same compound, the “cell cycle distribution (G2 phase), HeLa” value [1] was “dose-dependent accumulation in the G2 phase”, the BAG3 expression [13] was “expression decrease of BAG3” and the “A375 Cell Line IC50 ± SD” value [3] was “micromolar range”. It also gave an IC50 [3] of 19.4 ± 1.2 µM, a Kd [6] of 0.0063 ± 0.0003 µM and a Kd [7] of 0.0276 ± 0.0019 µM. The “apoptotic response (hypodiploid nuclei), A375” value [8] was “significant increase of the apoptotic response in a dose-dependent manner”, the “cell cycle distribution (G2 phase), A375” value [8] was “dose-dependent accumulation in the G2 phase” and the “HeLa Cell Line IC50 ± SD” value [9] was “micromolar range”. For the same compound, the IC50 [9] was 18.7 ± 0.9 µM and the “rBAG4 KD ± SD” value [10] was “n.b”.
In the case of COC(=O)CN1C(=O)S/C(=C\c2ccc(N(CCO)CCO)cc2)C1=O [Compound 7, (Z)-methyl 2-(5-(4-(bis(2-hydroxyethyl)amino)benzylidene)-2,4-dioxothiazolidin-3-yl) acetate], the IC50 [3] is reported as greater than 50 µM, the Kd [6] is reported as 0.0531 ± 0.0091 µM and the Kd [7] is reported as 0.0457 ± 0.0017 µM. The IC50 [9] was 49.4 ± 1.4 µM and the “rBAG4 KD ± SD” value [10] was “n.b”.
For CCOC(=O)CN1C(=O)S/C(=C\c2ccc(-c3ccc(C#N)cc3)cn2)C1=O [Compound 8, (Z)-ethyl 2-(5-((5-(4-cyanophenyl)pyridin-2-yl)methylene)-2,4-dioxothiazolidin-3-yl) acetate], the “A375 Cell Line IC50 ± SD” value [3] was “micromolar range”, the IC50 [3] was 23.2 ± 1 µM and the Kd [6] was 0.144 ± 0.0015 µM. The “rBAG3BD KD ± SD” value [7] was “n.b”, the “HeLa Cell Line IC50 ± SD” value [9] was “micromolar range” and the IC50 [9] was 25.9 ± 0.8 µM. The “rBAG4 KD ± SD” value [10] was “n.b”.
For COC(=O)CN1C(=O)S/C(=C\c2ccc(-c3ccc(C#N)cc3)cn2)C1=O [Compound 9, (Z)-methyl 2-(5-((5-(4-cyanophenyl)pyridin-2-yl)methylene)-2,4-dioxothiazolidin-3-yl) acetate], the “A375 Cell Line IC50 ± SD” value [3] was “micromolar range”, the IC50 [3] was 28.4 ± 0.9 µM and the Kd [6] was 0.0247 ± 0.0018 µM. For the same compound, the Kd [7] was 0.0224 ± 0.0007 µM, the “HeLa Cell Line IC50 ± SD” value [9] was “micromolar range” and the IC50 [9] was 31.3 ± 1 µM. For the same compound, the “rBAG4 KD ± SD” value [10] was “n.b”.
